Measurements published in BindingDB's records for doi:10.1016/j.bmcl.2007.10.036 (Cardiff University, 2007).

Target: MAP kinase-activated protein kinase 2 (Homo sapiens, UniProt P49137)
Assay: Inhibition of MK2 in human TERT immortalised HCA2 cells assessed as inhibition of anisomycin-induced HSP27 phosphorylation at 2.5 uM by ELISA

Sequence of MAP kinase-activated protein kinase 2 (P49137 whole entry): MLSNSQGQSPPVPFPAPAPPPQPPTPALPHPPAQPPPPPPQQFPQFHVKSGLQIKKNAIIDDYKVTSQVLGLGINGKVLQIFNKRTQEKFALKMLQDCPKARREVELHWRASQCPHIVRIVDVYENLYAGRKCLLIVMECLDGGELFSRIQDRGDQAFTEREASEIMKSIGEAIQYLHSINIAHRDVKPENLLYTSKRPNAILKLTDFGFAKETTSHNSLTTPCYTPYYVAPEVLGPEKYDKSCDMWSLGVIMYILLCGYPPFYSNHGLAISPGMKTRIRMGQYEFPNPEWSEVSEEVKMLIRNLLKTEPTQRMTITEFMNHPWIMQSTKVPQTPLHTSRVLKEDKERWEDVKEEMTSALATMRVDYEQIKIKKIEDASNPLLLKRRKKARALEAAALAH

How did the Ki turn out when `O=C(CCCc1ccc(-c2ccccc2F)cc1)Nc1ccc(O)cc1` was run?
The Ki was 330 nM.
